According to ChEMBL document CHEMBL4813951 (Eur J Med Chem, 2021):
Activity calls are given as the source filed them. The rule behind the calls is not given here.

Experiments:
[1] = target: T1, Histamine H2 receptor (Homo sapiens, UniProt P25021); assay: Agonist activity at human histamine receptor expressed in sf9 insect cell membranes co-exprssing GsalphaS incubated for 90 mins [35S]GTPgammaS binding based microbeta scintillation counting analysis; format: functional, Membrane
[2] = target: T1, Histamine H2 receptor; assay: Displacement of [3H]UR-DE257 from human histamine H2 receptor expressed in sf9 insect cell membranes co-expressing GSalphaS incubated for 60 mins by microbeta scintillation counting method; set-up: species or system Membrane
[3] = target: T1, Histamine H2 receptor; assay: Agonist activity at human histamine H2 receptor expressed in HEK293T cells co-expressing ELucC assessed as intrinsic activity at >= 30 uM by beta arrestin2 recruitment assay relative to histamine; format: functional, cell-based; conditions: filed as agonist, dose microM >=30
[4] = target: T1, Histamine H2 receptor; assay: Agonist activity at human histamine H2 receptor expressed in sf9 insect cell membranes co-exprssing GsalphaS assessed as intrinsic activity at >=30 uM incubated for 90 mins [35S]GTPgammaS binding based microbeta scintillation counting analysis relative to histamine; format: functional; conditions: Membrane, filed as agonist, dose microM >=30, time 90.0 min
[5] = target: Histamine H4 receptor (Homo sapiens, UniProt Q9H3N8)
[6] = target: Histamine H3 receptor (Homo sapiens, UniProt Q9Y5N1); assay: Displacement of [3H]UR-P129 from human histamine H3 receptor expressed in sf9 insect cell membranes co-expressing Galphai2/Gbeta1gamma2 incubated for 60 mins by microbeta scintillation counting method; set-up: species or system Membrane
Sequence of Histamine H3 receptor (Q9Y5N1 whole entry): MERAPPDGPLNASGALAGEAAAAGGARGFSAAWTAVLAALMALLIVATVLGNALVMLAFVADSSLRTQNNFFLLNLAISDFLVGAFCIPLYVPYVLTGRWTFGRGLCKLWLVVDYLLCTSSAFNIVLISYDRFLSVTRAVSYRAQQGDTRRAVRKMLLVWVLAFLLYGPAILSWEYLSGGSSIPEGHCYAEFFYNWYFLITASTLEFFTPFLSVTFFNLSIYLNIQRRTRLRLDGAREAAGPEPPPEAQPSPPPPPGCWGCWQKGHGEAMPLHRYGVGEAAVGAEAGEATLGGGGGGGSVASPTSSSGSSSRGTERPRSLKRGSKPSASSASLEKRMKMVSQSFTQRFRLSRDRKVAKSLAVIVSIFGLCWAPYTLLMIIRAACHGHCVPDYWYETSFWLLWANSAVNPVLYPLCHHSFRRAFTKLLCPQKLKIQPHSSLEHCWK

[7] = target: T1, Histamine H2 receptor; assay: Agonist activity at human histamine H2 receptor expressed in HEK293T cells co-expressing ELucC by beta arrestin2 recruitment assay; format: functional, cell-based
[8] = target: Histamine H1 receptor (Homo sapiens, UniProt P35367); assay: Displacement of [3H]mepyramine from human histamine H1 receptor expressed in sf9 insect cell membranes co-expressing RGS4 incubated for 60 mins by microbeta scintillation counting method; set-up: species or system Membrane
Sequence of Histamine H1 receptor (P35367 whole entry): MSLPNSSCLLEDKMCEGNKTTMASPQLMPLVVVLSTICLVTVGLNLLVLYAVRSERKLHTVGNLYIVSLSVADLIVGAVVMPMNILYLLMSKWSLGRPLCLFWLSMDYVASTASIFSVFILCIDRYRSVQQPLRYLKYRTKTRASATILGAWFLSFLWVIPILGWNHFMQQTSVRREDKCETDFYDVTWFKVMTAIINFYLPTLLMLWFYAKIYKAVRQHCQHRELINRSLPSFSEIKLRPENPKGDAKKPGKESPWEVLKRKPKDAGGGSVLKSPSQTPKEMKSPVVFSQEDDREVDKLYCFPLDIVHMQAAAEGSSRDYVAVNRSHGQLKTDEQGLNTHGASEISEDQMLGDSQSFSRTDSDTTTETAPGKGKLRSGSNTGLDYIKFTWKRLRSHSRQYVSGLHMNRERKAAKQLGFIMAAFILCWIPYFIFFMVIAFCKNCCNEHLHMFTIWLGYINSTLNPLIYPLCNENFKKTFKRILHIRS

[9] = Dissociation constant, pKa of compound in NaOH; format: physicochemical; conditions: NaOH solution
[10] = target: T2, D(2) dopamine receptor (Homo sapiens, UniProt P14416); assay: Displacement of [3H]N-methylspiperone from human D2L receptor expressed in HEK293T cells co-expressing CRE-Luc incubated for 60 mins by microbeta scintillation counting method; format: cell-based
T2 sequence (P14416 whole entry): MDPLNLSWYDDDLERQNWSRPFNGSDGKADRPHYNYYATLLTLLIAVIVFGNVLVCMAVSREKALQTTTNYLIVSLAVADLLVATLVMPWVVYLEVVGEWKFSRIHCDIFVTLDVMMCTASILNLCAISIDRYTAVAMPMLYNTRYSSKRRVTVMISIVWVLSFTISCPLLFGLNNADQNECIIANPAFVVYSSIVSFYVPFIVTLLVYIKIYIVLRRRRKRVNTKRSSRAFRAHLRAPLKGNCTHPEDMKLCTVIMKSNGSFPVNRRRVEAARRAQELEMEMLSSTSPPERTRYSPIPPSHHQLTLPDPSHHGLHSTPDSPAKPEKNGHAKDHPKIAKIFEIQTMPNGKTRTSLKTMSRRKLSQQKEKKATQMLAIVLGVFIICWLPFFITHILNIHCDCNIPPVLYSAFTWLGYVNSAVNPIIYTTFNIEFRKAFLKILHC

[11] = target: T3, D(3) dopamine receptor (Homo sapiens, UniProt P35462); assay: Displacement of [3H]N-methylspiperone from human D3 receptor expressed in HEK293T cells co-expressing CRE-Luc incubated for 60 mins by microbeta scintillation counting method; format: cell-based
T3 sequence (P35462 whole entry): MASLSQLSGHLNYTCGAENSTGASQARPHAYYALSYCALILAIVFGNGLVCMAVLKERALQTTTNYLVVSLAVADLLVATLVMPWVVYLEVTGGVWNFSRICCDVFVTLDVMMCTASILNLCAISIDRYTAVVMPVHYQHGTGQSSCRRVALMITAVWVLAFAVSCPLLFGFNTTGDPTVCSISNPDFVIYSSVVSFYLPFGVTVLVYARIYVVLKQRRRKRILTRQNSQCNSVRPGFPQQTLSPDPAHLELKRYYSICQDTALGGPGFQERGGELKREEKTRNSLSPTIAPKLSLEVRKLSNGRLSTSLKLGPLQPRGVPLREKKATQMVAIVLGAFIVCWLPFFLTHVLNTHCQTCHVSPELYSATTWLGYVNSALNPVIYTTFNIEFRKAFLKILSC

[12] = target: Histamine H2 receptor (Cavia porcellus) (UniProt P47747); assay: Agonist activity at guinea pig right atrium histamine H2 receptor assessed as intrinsic activity incubated for 30 mins in presence of cimetidine relative to histamine; format: functional, tissue-based; conditions: Right cardiac atrium, filed as agonist
Sequence of Histamine H2 receptor (Cavia porcellus) (P47747 whole entry): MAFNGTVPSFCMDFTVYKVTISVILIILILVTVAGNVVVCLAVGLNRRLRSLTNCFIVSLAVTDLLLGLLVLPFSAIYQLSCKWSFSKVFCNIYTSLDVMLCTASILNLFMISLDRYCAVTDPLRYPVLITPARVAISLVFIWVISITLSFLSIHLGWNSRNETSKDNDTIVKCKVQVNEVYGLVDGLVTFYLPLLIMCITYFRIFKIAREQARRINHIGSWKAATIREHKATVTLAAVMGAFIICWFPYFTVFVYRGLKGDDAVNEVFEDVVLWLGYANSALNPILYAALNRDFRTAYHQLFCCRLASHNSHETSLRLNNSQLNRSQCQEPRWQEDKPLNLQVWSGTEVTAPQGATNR

[13] = target: T2, D(2) dopamine receptor; format: functional, cell-based, HEK293T
[14] = target: Histamine H2 receptor (Cavia porcellus, UniProt P47747); assay: (§1) Agonist activity at guinea pig right atrium histamine H2 receptor assessed as increase in heart rate incubated for 30 mins in presence of cimetidine; format: functional, tissue-based, Right cardiac atrium
Sequence of Histamine H2 receptor (Cavia porcellus, UniProt P47747) (P47747 whole entry): as above

[15] = target: T3, D(3) dopamine receptor; assay: Agonist activity at […] expressed in HEK293T cells co-expressing ELucC by beta arrestin2 recruitment assay; format: functional, cell-based
[16] = Dissociation constant, pKa of compound in aqueous solution in presence of EtOH by spectrometric method; conditions: aqueous solution with EtOH
[17] = target: T1, Histamine H2 receptor; conditions: Sf9, Membrane, filed as agonist, time 90.0 min
[18] = target: Histamine H2 receptor (Cavia porcellus) (UniProt P47747); assay: as §1; format: functional, tissue-based; conditions: Right cardiac atrium
[19] = Dissociation constant, pKa of compound in aqueous solution in presence of HCL; format: physicochemical; conditions: aqueous solution with HCl
[20] = Dissociation constant, pKa of compound in aqueous solution; format: physicochemical
[21] = Dissociation constant, pKa1 of compound in HCL or HCL salt; format: physicochemical; conditions: HCl or HCl salt solution
[22] = Dissociation constant, pKa2 of compound in HCL or HCL salt; format: physicochemical; conditions: HCl or HCl salt solution

T1 sequence (P25021 whole entry): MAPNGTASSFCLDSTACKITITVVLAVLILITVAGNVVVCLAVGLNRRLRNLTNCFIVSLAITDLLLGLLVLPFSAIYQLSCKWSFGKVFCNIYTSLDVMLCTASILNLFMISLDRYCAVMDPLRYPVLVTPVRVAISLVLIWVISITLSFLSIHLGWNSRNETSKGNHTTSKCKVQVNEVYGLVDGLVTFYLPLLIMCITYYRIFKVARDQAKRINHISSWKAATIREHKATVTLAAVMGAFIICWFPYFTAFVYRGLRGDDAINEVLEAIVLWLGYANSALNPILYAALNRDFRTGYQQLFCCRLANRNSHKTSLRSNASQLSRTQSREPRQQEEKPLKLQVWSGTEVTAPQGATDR

SMILES | EC50 [1] | Ki [2] | Intrinsic activity [4] | Ki [5] | Ki [6] | EC50 [7] | Ki [8] | Ki [11] | EC50 [15] | also measured
Cc1nc(N)sc1CCCN/C(N)=N/C(=O)NCC(C)c1ccc(C(C)C)cc1 (configuration not stated) | 0.0347 µM | 0.148 µM | 0.59 | 2.63 µM | 7.94 µM | 0.282 µM | 4.9 µM | – | – | Intrinsic activity [3]: 0.25
C[C@@H](NC(=O)/N=C(\N)NCCCc1ccccc1)c1ccccc1 | – | – | – | – | – | – | – | – | – | pKa [9]: 7.96
Cc1nc(N)sc1CCCN/C(N)=N/C(=O)Nc1ccccc1 | 0.525 µM | 3.16 µM | 0.59 | 22.4 µM | – | 3.39 µM | – | – | – | –
N/C(=N\C(=O)NCc1ccccc1)NC1CCc2nc(N)sc2C1 (configuration not stated) | 0.214 µM | 0.513 µM | 0.53 | 30.2 µM | 3.31 µM | 4.37 µM | 1.2 µM | 5.01 µM | – | Ki [10]: 0.55 µM
CCCNC(=O)/N=C(\N)NCC | – | – | – | – | – | – | – | – | – | pKa [9]: 8.31
Cc1nc(N)sc1CCCN/C(N)=N/C(=O)NCC(c1ccccc1)C(C)C (configuration not stated) | 0.0309 µM | 0.102 µM | 0.52 | 5.89 µM | 11.7 µM | 0.158 µM | 5.89 µM | – | – | Intrinsic activity [3]: 0.11
CCCNC(=O)/N=C(\N)NCCCc1sc(N)nc1C | 0.178 µM | 0.105 µM | 0.79 | 87.1 µM | 44.7 µM | 0.17 µM | 28.8 µM | – | – | –
Cc1nc(N)sc1C | – | – | – | – | – | – | – | – | – | pKa [16]: 6.29; pKa [9]: 6.28
CCCNC(=O)/N=C(\N)Nc1cccc(-c2csc(N)n2)c1 | – | 5.25 µM | – | > 100 µM | – | – | – | – | – | pKb [17]: 4.91
CCCN[C@@H]1CCc2nc(N)sc2C1 [DEXPRAMIPEXOLE] | 8.51 µM | 13.8 µM | – | – | – | 39.8 µM | – | – | – | –
Cc1nc(N)sc1CCCN/C(N)=N/C(=O)NCCc1ccccc1 | 0.0447 µM | 0.158 µM | 0.72 | 14.8 µM | – | 0.166 µM | – | – | – | –
CCC(CNC(=O)/N=C(\N)NCCCc1sc(N)nc1C)c1ccccc1 (configuration not stated) | 0.0288 µM | 0.0776 µM | – | 6.76 µM | 16.6 µM | 0.269 µM | 7.94 µM | 0.0646 µM | 0.0407 µM | –
Cc1nc(N)sc1CCCN/C(N)=N/C(=S)NCC(c1ccccc1)c1ccccc1 | – | 1.45 µM | – | 21.4 µM | 46.8 µM | – | 44.7 µM | – | – | pEC50 [18]: inactive
Cc1nc(N)sc1CCCN/C(N)=N/C(=O)NC1CCCCC1 | 0.148 µM | 0.17 µM | – | 31.6 µM | – | 0.389 µM | 24.5 µM | – | – | –
Cc1ccc(CC(C)CNC(=O)/N=C(\N)NCCCc2sc(N)nc2C)cc1 (configuration not stated) | 0.0603 µM | 0.0724 µM | – | 3.63 µM | 3.24 µM | 0.132 µM | 1.66 µM | – | – | –
Cc1csc(N)n1 | – | – | – | – | – | – | – | – | – | pKa [19]: 4.64; pKa [9]: 5.77; pKa [20]: 5.95
N/C(=N\C(=O)Nc1ccccc1)Nc1cccc(-c2csc(N)n2)c1 | – | 372 µM | – | 64.6 µM | – | – | – | – | – | pKb [17]: 4.76
CCCCCCNC(=O)/N=C(\N)NC1CCc2nc(N)sc2C1 (configuration not stated) | 0.148 µM | 1.12 µM | 0.16 | 16.6 µM | 1.51 µM | – | 1.95 µM | 1.26 µM | – | Ki [10]: 1.26 µM
Cc1nc(N)sc1CCCN/C(N)=N/C(=S)N[C@H](C)c1ccccc1 | – | 0.115 µM | – | 26.9 µM | 64.6 µM | 0.372 µM | 110 µM | 0.0603 µM | 0.166 µM | Intrinsic activity [12]: 0.87; Ki [10]: 1.17 µM; EC50 [13]: 1.51 µM; EC50 [14]: 0.0891 µM
N/C(=N\C(=O)NC1CCCCC1)Nc1cccc(-c2csc(N)n2)c1 | – | 4.47 µM | – | 13.5 µM | – | – | – | – | – | pKb [17]: 5.4
CCCCCCNC(=O)/N=C(\N)Nc1cccc(-c2csc(N)n2)c1 | – | 0.692 µM | – | 9.55 µM | 11 µM | – | – | 1.29 µM | – | Ki [10]: 2.51 µM; pKb [17]: 6.14

Now from value to compound, other results behind:

EC50 [1] | Ki [2] | Intrinsic activity [4] | Ki [5] | Ki [6] | EC50 [7] | Ki [8] | Ki [11] | EC50 [15] | SMILES | also measured
– | 0.0316 µM | – | 45.7 µM | 43.7 µM | 0.234 µM | 45.7 µM | 0.0174 µM | 0.102 µM | Cc1nc(N)sc1CCCN/C(N)=N/C(=O)NC(C)c1ccco1 (configuration not stated) | Intrinsic activity [12]: 1; Ki [10]: 1.7 µM; EC50 [13]: 1.07 µM; EC50 [14]: 0.00977 µM
0.0219 µM | 0.0398 µM | 0.65 | 1.91 µM | 10 µM | 0.224 µM | 2.34 µM | 0.0437 µM | 0.263 µM | Cc1nc(N)sc1CCCN/C(N)=N/C(=O)NCC(C)C1CCCCC1 (configuration not stated) | Intrinsic activity [3]: 0.4; Ki [10]: 0.263 µM; EC50 [13]: 3.24 µM
0.0174 µM | 0.0708 µM | – | 3.72 µM | 7.41 µM | 0.302 µM | 3.8 µM | 0.132 µM | 0.302 µM | Cc1nc(N)sc1CCCN/C(N)=N/C(=O)NCC(C)CC1CCCCC1 (configuration not stated) | –
– | 0.00447 µM | – | 4.27 µM | 10.5 µM | 0.178 µM | 10.7 µM | – | – | CCCCCNC(=O)/N=C(\N)NCCCc1sc(N)nc1C | Ki [10]: 0.447 µM; EC50 [13]: 1.05 µM; EC50 [14]: 0.00575 µM
0.0389 µM | 0.0288 µM | 0.6 | 8.13 µM | 5.62 µM | 0.0851 µM | 7.76 µM | 0.0141 µM | 0.0234 µM | CCCCCCNC(=O)/N=C(\N)NCCCc1sc(N)nc1C | Intrinsic activity [12]: 0.95; Ki [10]: 0.562 µM; EC50 [13]: 1.74 µM; EC50 [14]: 0.0158 µM
0.0288 µM | 0.0692 µM | 0.91 | 19.1 µM | 19.5 µM | 0.1 µM | 6.17 µM | 0.0457 µM | 0.0339 µM | Cc1nc(N)sc1CCCN/C(N)=N/C(=O)NCc1ccccc1 | Ki [10]: 0.603 µM; EC50 [13]: 1.66 µM
0.0295 µM | 0.0631 µM | 0.69 | 3.24 µM | 9.12 µM | 0.355 µM | 1.35 µM | 0.0457 µM | 0.891 µM | Cc1nc(N)sc1CCCN/C(N)=N/C(=O)NCC(C)CCc1ccccc1 (configuration not stated) | Intrinsic activity [3]: 0.2; Ki [10]: 0.355 µM; EC50 [13]: 5.37 µM
– | 0.0513 µM | – | 17.8 µM | 33.1 µM | – | 21.4 µM | 0.0245 µM | 0.229 µM | Cc1nc(N)sc1CCCN/C(N)=N/C(=O)N[C@@H](C)c1ccccc1 | EC50 [14]: 0.0234 µM
– | 0.0355 µM | – | 7.94 µM | 19.1 µM | – | 24.5 µM | – | – | Cc1nc(N)sc1CCCN/C(N)=N/C(=O)NC(c1ccccc1)C(C)C (configuration not stated) | Intrinsic activity [12]: 1.04; EC50 [14]: 0.0347 µM
– | 0.0603 µM | – | 0.776 µM | 2.29 µM | 2.51 µM | 7.08 µM | – | – | Cc1nc(N)sc1CCCN/C(N)=N/C(=O)NCC(C)CCCc1ccccc1 (configuration not stated) | –
– | 0.0372 µM | – | 20 µM | 33.1 µM | – | 5.89 µM | – | – | COc1ccc(C(C)NC(=O)/N=C(\N)NCCCc2sc(N)nc2C)cc1 (configuration not stated) | Intrinsic activity [12]: 0.91; EC50 [14]: 0.038 µM
– | 0.0178 µM | – | 13.5 µM | 43.7 µM | 0.0457 µM | 8.71 µM | 0.00617 µM | 0.0155 µM | Cc1nc(N)sc1CCCN/C(N)=N/C(=O)N[C@H](C)c1ccccc1 | pKa [21]: 4.68; pKa [22]: 7.47; EC50 [14]: 0.00759 µM
– | 0.00204 µM | – | 13.2 µM | 38.9 µM | 0.0646 µM | 7.76 µM | 0.00871 µM | 0.0724 µM | Cc1nc(N)sc1CCCN/C(N)=N/C(=O)NC(C)c1cccc(F)c1 (configuration not stated) | EC50 [14]: 0.0263 µM
